Data as given in a compilation of properties of binary mixtures (doi:10.1016/j.molliq.2011.09.019).

Assay: xn = mol fraction of the nth substance listed
Conditions: 101 kPa

CS(C)=O + CC(=O)[O-].CC[NH2+]CC
x1 = 1
Conditions | speed of sound [m/s] | viscosity [mPa·s]
298.15 K | 1496 | 1.99
303.15 K | 1472 | 1.79
308.15 K | 1460 | 1.65

CC(=O)[O-].CC[NH2+]CC + CS(C)=O
Conditions | speed of sound, 298.15 K [m/s] | speed of sound, 303.15 K [m/s] | speed of sound, 308.15 K [m/s] | viscosity, 298.15 K [mPa·s] | viscosity, 303.15 K [mPa·s] | viscosity, 308.15 K [mPa·s]
x1 = 0.0144 | 1500 | 1478 | 1469 | 2.24 | 2.04 | 1.9
x2 = 0 | 1608 | 1604 | 1599 | 16.36 | 13.64 | 11.83
x2 = 0.0253 | 1606 | – | 1594 | 16.01 | – | 11.6
x2 = 0.0627 | 1604 | 1599 | 1594 | 15.5 | 12.96 | 11.27
x2 = 0.1132 | 1601 | 1597 | 1592 | 14.83 | 12.44 | 10.86
x2 = 0.1535 | 1599 | 1595 | – | 14.29 | 12.02 | –
x2 = 0.2023 | – | 1594 | 1589 | – | 11.54 | 10.14
x2 = 0.2458 | 1597 | 1593 | 1588 | 13.11 | 11.1 | 9.76
x2 = 0.2814 | – | 1592 | – | – | 10.73 | –
x2 = 0.3244 | 1596 | 1591 | 1584 | 12.13 | 10.28 | 9.1
x2 = 0.3701 | 1595 | 1590 | 1582 | 11.56 | 9.82 | 8.7
x2 = 0.4864 | 1593 | 1582 | 1574 | 10.09 | 8.64 | 7.69
x2 = 0.5897 | – | 1572 | 1562 | – | 7.51 | 6.74
x2 = 0.66 | – | 1564 | 1554 | – | 6.72 | 6.08
x2 = 0.7253 | 1572 | – | 1544 | 6.74 | – | 5.4
x2 = 0.7851 | – | 1540 | 1530 | – | 5.17 | 4.77
x2 = 0.8406 | 1546 | – | 1516 | 4.91 | – | 4.11
x2 = 0.8923 | 1532 | 1512 | 1502 | 3.98 | 3.67 | 3.45
x2 = 0.9248 | 1522 | – | 1490 | 3.39 | – | 2.95
x2 = 0.956 | 1513 | 1491 | 1480 | 2.81 | 2.61 | 2.48
x2 = 0.971 | – | 1485 | 1474 | – | 2.32 | 2.18
